Common to all, as to format: biochemical
For one test, the target named is DDR2 (Homo sapiens (Human), UniProt Q16832). Description: DDR2 enzyme activity test (ELISA). As to conditions: read-out: DDR2 IC50. The method, boiled down: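 Recombinant DDR2 kinase domain (baculovirus-expressed) phosphorylates coated Poly(Glu,Tyr) 4:1 in HEPES pH 7.4 buffer with Mg/Mn, 1% DMSO, 1 h at 37 °C. Phosphotyrosine detected by PY99/HRP ELISA with OPD read at 490 nm; IC50 from four-parameter fit.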
Background: ELISA stands for enzyme-linked immunosorbent assay.

For another test, the target named is IGF-1R (Homo sapiens (Human), UniProt P08069). As to the kind of experiment: Enzyme selectivity test (ELISA), IGF-1R. How it is done: 1) Enzyme reaction substrate Poly(Glu, Tyr) 4:1 was diluted to 20 μg/mL with potassium-free PBS (10 mM sodium phosphate buffer, 150 mM NaCl, pH 7.2-7.4), and the microtiter plate was coated with 125 μL/well and placed at 37° C. for 12-16 hours of reaction. The liquid in the well was discard. The plate was washed three times with T-PBS (potassium-free PBS containing 0.1% Tween-20, 200 μL/well), 5 minutes each time. The ELISA plate was dried in an oven at 37° C. for 1 to 2 hours.
IGF-1R, sequence (P08069 31-1367, species assumed): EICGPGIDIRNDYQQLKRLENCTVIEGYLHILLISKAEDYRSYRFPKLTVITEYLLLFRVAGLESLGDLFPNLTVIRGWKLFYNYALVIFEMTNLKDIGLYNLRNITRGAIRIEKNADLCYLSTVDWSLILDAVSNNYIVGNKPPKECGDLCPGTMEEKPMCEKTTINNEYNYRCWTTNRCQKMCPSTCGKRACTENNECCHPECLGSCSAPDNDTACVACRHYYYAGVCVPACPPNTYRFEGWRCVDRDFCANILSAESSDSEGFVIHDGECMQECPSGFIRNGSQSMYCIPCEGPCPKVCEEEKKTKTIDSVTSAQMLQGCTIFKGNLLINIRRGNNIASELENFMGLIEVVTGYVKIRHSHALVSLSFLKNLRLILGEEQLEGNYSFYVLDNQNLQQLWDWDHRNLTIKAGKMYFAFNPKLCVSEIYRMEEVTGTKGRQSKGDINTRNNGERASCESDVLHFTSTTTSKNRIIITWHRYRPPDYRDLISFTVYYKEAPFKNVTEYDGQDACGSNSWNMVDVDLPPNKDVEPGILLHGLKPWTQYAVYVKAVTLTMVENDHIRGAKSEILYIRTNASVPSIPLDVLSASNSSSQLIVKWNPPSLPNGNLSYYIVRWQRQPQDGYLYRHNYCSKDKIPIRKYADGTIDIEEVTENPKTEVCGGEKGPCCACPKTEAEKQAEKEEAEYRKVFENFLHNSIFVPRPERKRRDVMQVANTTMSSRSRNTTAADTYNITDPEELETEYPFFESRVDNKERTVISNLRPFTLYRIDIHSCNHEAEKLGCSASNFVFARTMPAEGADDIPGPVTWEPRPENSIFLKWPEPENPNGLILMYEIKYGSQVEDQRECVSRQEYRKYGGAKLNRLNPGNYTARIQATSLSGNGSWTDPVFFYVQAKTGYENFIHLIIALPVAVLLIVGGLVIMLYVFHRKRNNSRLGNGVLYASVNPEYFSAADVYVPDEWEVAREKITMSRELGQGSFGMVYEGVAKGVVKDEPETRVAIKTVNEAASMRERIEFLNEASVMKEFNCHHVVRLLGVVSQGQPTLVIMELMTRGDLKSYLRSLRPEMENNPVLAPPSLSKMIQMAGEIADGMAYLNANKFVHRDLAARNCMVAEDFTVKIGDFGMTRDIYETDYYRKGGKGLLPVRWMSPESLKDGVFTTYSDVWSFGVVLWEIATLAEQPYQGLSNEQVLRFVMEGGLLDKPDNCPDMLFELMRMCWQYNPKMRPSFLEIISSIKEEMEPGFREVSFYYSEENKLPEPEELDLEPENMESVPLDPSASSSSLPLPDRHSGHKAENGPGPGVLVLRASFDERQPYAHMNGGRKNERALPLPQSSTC
2) Reaction buffer (50 mM HEPES pH 7.4, 50 mM MgCl2, 0.5 mM MnCl2, 0.2 mM Na3VO4, 1 mM DTT) diluted ATP solution (49 μL) was added to each well, 1 μL of the compound to be tested was added to each well, and then 50 μL of DDR2 kinase domain recombinant protein diluted in the reaction buffer was added to start the reaction. Two control wells without ATP were set in each experiment. The plate placed on a shaker (100 rpm) at 37° C. for 1 hour of reaction. The liquid in the well was discarded and the plate was washed three times with T-PBS.
3) Antibody PY99 dilution solution (the antibody was diluted 1:500 with T-PBS containing BSA 5 mg/mL) was added at 100 μL/well, and shaken on a shaker at 37° C. for 0.5 hour of reaction. The liquid in the well was discarded and the plate was washed three times with T-PBS.
4) Horseradish peroxidase labeled goat anti-murine secondary antibody dilution solution (the antibody is diluted 1:2000 with T-PBS containing BSA 5 mg/ml) was added at 100 μL/well, and shaken on a shaker at 37° C. for 0.5 hour of reaction. The liquid in the well was discarded and the plate was washed three times with T-PBS.
5) 2 mg/ml of OPD color developing solution [diluted with 0.1 M citric acid-sodium citrate buffer (pH=5.4) containing 0.03% H2O2] was added at 100 μL/well and reacted for 1 to 10 minutes at 25° C. in the dark.
6) 2M H2SO4 was added at 50 μL/well to stop the reaction, and a tunable wavelength microplate reader VERSAmax was used for reading at a wavelength of 490 nm.
The IC50 value was obtained by four-parameter regression using the software that came with the microplate reader. […]

A further test concerns kinases. Description: Enzyme selectivity test, kinase panel overall. As to conditions: kinase panel of Table 5. The source says: Except that the enzyme was different, other test methods and conditions were the same as the DDR2 enzyme activity test method in Effect example 1.

DDR2, sequence (Q16832 563-849): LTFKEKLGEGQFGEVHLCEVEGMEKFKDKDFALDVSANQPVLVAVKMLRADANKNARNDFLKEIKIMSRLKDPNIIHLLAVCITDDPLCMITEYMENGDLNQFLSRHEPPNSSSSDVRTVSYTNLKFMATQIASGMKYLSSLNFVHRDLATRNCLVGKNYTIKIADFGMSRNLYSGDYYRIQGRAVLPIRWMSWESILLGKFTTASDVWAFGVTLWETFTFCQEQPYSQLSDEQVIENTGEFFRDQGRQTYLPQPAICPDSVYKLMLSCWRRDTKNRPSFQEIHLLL

As a reminder, the IC50 is the point on the concentration scale where inhibition reaches its midpoint. `O=C(Nc1cccc(C(F)(F)F)c1)c1ccc(C2CC2)c(-c2ccc3nc(Nc4cnn(C5CC5)c4)ncc3c2)c1` [Compound S15, 4-cyclopropyl-3-(2-((1-cyclopropyl-1H-pyrazol-4-yl)amino)quinazolin-6-yl)-N-(3-(trifluoromethyl)phenyl)benzamide]: the IC50 was 6.1 ± 0.5 nM on DDR2 and above 1000 nM against IGF-1R. Further, the selectivity for kinases entry with kinases is reported as “good selectivity”.

Values taken from patent US11655239B2 (SHANGHAI INSTITUTE OF MATERIAL MEDICA, CHINESE ACADEMY OF …, priority 2019, dated 2023).
